This is an account of results in PMC7356696, “Synthesis, Antimicrobial Activity and Molecular Docking of Novel Thiourea Derivatives Tagged with Thiadiazole, Imidazole and Triazine Moieties as Potential DNA Gyrase and Topoisomerase IV Inhibitors” (Molecules, 2020).

≈ marks a conversion by molar mass, not a printed value.

Data set [1] has as its target T1, dihydrofolate reductase (DHFR) (Homo sapiens, UniProt P00374).
T1 construct: purchased Bio Vision
T1 sequence (P00374 1-187): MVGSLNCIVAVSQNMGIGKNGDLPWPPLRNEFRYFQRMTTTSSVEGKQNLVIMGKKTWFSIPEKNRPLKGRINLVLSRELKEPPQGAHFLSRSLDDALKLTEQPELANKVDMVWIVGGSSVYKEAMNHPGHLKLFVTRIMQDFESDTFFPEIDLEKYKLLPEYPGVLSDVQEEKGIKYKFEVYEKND
Description: Dihydrofolate reductase inhibitor screening kit (colorimetric, BioVision). The class given is biochemical. Conditions: read-out: IC50 (mean ± SEM). How it is done:
(§1) This test was performed at the Confirmatory Diagnostic Unit, VACSERA, Egypt.
(§2) The screening performed against E. coli DNA gyrase B, E. coli Topoisomerase IV and dihydrofolate reductase enzymes.

The test system of data set [2] is Aspergillus flavus ATCC 46283. Description: MIC, modified agar well diffusion method. Type of data set: cell-based. The following applies: ATCC46283, A. flavus ATCC 46283, read-out: MIC (Mean ± SEM). The text has this: (§3) The antimicrobial activity of all synthesized compounds 2–13 was screened against a panel of two Gram-positive bacteria (Staphylococcus aureus ATCC 29213 and Bacillus subtilis ATCC 6633), two Gram-negative bacteria (Escherichia coli ATCC 25922, Pseudomonas aeruginosa ATCC 27853) and two fungi (Candida albicans ATCC 10231 and Aspergillus flavus ATCC 46283) using the agar well diffusion method. Ciprofloxacin and clotrimazole were used as antibacterial and antifungal standards, respectively. The results of this study were recorded as the average diameter of the inhibition zones (IZ) in Table 1. […] Additionally, the promising activity against S. aureus was observed from compounds 9, 12 and 13, however against B. subtilis from compounds 12 and 13.
(§4) The antimicrobial assay was performed in vitro for the target compounds 2–13 against Staphylococcus aureus ATCC 29213, Bacillus subtilis ATCC 6633 as Gram-positive bacteria, Escherichia coli ATCC 25922, Pseudomonas aeruginosa ATCC 27853 as Gram-negative bacteria and Candida albicans ATCC 10231, Aspergillus flavus ATCC 46283 as fungi. At the first, 100 μL of the test bacteria/fungi were grown in 10 mL of fresh media until they reached a count of approximately 10^8 cells/ml for bacteria or 10^5 cells/mL for fungi. One milliliter of each sample (at 0.5 mg/mL) was added to each well (10 mm diameter holes cut in the agar gel). The plates were incubated for 24 h at 37 °C (for bacteria and yeast) and for 72 h at 27 °C (for filamentous fungi), each test was repeated three times. After incubation, the microorganism’s growth was observed. Ciprofloxacin and clotrimazole were used as standard antibacterial and antifungal drugs, respectively. The resulting inhibition zone diameters were measured in millimeters using the diffusion technique. […] The different concentrations (triplicate) of each compound were tested and compared with standard drugs.

The test system of data set [3] is Escherichia coli ATCC 25922. Description: MIC, modified agar well diffusion method. Type of data set: cell-based. The following applies: ATCC25922, E. coli ATCC 25922, read-out: MIC (Mean ± SEM).
Text: as §3, §4
A general note: In agar diffusion tests the substance spreads into inoculated agar from a disc or well.

The test system of data set [4] is Pseudomonas aeruginosa ATCC 27853. Description: MIC, modified agar well diffusion method. The following applies: ATCC27853, P. aeruginosa ATCC 27853, read-out: MIC (Mean ± SEM). The class given is cell-based.
Text: as §3, §4

Data set [5] deals with Candida albicans ATCC 10231. Description: MIC, modified agar well diffusion method. Type of data set: cell-based. Conditions: ATCC10231, C. albicans ATCC 10231, read-out: MIC (Mean ± SEM).
Text: as §3, §4

Data set [6] concerns Staphylococcus aureus ATCC 29213. Description: MIC, modified agar well diffusion method. Type of data set: cell-based. The following applies: ATCC29213, S. aureus ATCC 29213, read-out: MIC (Mean ± SEM).
Text: as §3, §4

Data set [7] deals with Bacillus subtilis ATCC 6633. Description: MIC, modified agar well diffusion method. Conditions: ATCC6633, B. subtilis ATCC 6633, read-out: MIC (Mean ± SEM). Type of data set: cell-based.
Text: as §3, §4

In a further data set the target is T2, E. coli Topoisomerase IV (Escherichia coli, UniProt P20083).
T2 construct: purchased Inspiralis
Description: In vitro enzyme inhibition, topoisomerase IV decatenation kit (Inspiralis). Type of data set: biochemical. How it is done:
as §1, §2

Data set [8] relates to Aspergillus flavus ATCC 46283. Description: Agar well diffusion, inhibition zone. The arrangement: dose or concentration left out as unconfirmed. The class given is cell-based. The following applies: ATCC46283, A. flavus ATCC 46283, NA = No Activity, read-out: Mean Diameter of Inhibition Zone (Mean ± SEM).
Text: as §3, §4

Data set [9] concerns Escherichia coli ATCC 25922. Description: Agar well diffusion, inhibition zone. Type of data set: cell-based. More on the design: dose or concentration left out as unconfirmed. Conditions: ATCC25922, E. coli ATCC 25922, NA = No Activity, read-out: Mean Diameter of Inhibition Zone (Mean ± SEM).
Text: as §3, §4

Data set [10] concerns Pseudomonas aeruginosa ATCC 27853. Description: Agar well diffusion, inhibition zone. Type of data set: cell-based. The arrangement: dose or concentration left out as unconfirmed. The following applies: ATCC27853, P. aeruginosa ATCC 27853, NA = No Activity, read-out: Mean Diameter of Inhibition Zone (Mean ± SEM).
Text: as §3, §4

Data set [11] relates to Candida albicans ATCC 10231. Description: Agar well diffusion, inhibition zone. Type of data set: cell-based. More on the design: dose or concentration left out as unconfirmed. The following applies: ATCC10231, C. albicans ATCC 10231, NA = No Activity, read-out: Mean Diameter of Inhibition Zone (Mean ± SEM).
Text: as §3, §4

In data set [12] the test system is Staphylococcus aureus ATCC 29213. Description: Agar well diffusion, inhibition zone. Conditions: ATCC29213, S. aureus ATCC 29213, NA = No Activity, read-out: Mean Diameter of Inhibition Zone (Mean ± SEM). More on the design: dose or concentration left out as unconfirmed. The class given is cell-based.
Text: as §3
as §4, with “One milliliter of each sample (at 0.5 mg/mL) was added to each well (10 mm diameter holes cut in the agar gel).” left out

The subject of data set [13] is Bacillus subtilis ATCC 6633. Description: Agar well diffusion, inhibition zone. The class given is cell-based. The arrangement: dose or concentration left out as unconfirmed. The following applies: ATCC6633, B. subtilis ATCC 6633, NA = No Activity, read-out: Mean Diameter of Inhibition Zone (Mean ± SEM).
Text: as §3
as §4, with “One milliliter of each sample (at 0.5 mg/mL) was added to each well (10 mm diameter holes cut in the agar gel).” left out

The target in another data set is T3, E. coli DNA gyrase B (Escherichia coli, UniProt P0AES6).
T3 construct: purchased Inspiralis
Description: In vitro enzyme inhibition, DNA gyrase microplate assay kit (Inspiralis). Type of data set: biochemical. The protocol:
as §1, §2

Data set [14] has as its system human breast cancer (MCF-7) cells. Description: MTT assay for cytotoxic activity. Conditions: Homo sapiens, MCF7, MCF-7 cells, read-out: IC50 (Mean ± SEM), cytotoxic activity. The class given is cell-based. The text has this: (§5) The results are expressed as IC50 values (µM) and are depicted in Table 3.
A general note: Tetrazolium assays rely on reduction of a dye to a coloured formazan, in cell work by metabolically active cells.

Data set [15] is described as follows: MTT assay for cytotoxic activity. The class given is cell-based. The following applies: African green monkey, Vero cells (normal kidney epithelial cell line), read-out: IC50 (Mean ± SEM), cytotoxic activity.
Text: as §5

The subject of data set [16] is Staphylococcus aureus DNA gyrase. The arrangement: method as in PMID 25792505. The following applies: cited from earlier work.
Data set [17] concerns the target T1, dihydrofolate reductase (DHFR). More on the design: method as in PMID 23792351. Conditions: cited from earlier work.

T2 sequence (P0AFI2 whole entry): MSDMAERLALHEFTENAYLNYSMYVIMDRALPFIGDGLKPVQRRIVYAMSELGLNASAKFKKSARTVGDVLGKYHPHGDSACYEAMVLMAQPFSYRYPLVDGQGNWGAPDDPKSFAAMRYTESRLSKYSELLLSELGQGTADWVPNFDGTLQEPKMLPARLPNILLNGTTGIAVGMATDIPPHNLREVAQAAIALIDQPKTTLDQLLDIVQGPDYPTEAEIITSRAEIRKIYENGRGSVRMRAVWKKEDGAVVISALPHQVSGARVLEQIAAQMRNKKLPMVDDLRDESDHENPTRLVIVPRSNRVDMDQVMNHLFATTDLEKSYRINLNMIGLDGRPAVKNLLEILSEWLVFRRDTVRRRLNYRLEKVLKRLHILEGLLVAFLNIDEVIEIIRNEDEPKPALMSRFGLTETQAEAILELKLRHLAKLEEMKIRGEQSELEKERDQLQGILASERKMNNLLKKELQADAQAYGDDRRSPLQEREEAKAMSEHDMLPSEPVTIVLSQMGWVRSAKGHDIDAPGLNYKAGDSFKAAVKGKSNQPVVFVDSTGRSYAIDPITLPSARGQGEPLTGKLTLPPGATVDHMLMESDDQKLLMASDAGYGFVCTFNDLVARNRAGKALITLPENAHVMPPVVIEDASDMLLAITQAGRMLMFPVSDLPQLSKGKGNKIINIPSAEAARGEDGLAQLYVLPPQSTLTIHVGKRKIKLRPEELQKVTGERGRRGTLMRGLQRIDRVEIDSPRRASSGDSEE
T2 sequence (P20083 whole entry): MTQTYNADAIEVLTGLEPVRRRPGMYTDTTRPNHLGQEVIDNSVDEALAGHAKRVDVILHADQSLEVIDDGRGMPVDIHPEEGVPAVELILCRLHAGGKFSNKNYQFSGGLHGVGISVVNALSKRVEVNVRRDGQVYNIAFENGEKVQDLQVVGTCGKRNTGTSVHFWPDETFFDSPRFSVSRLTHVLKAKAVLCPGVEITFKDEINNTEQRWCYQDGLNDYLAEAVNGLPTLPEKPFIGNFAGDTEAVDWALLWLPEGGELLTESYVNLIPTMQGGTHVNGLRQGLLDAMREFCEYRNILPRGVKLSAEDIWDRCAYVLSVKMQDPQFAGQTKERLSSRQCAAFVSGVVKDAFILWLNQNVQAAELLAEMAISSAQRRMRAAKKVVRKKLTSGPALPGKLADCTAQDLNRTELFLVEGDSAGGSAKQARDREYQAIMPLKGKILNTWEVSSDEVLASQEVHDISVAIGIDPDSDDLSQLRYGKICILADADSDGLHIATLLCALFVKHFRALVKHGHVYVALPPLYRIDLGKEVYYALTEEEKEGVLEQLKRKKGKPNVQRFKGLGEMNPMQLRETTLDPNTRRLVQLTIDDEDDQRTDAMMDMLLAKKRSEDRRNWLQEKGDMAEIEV

Consider `N#CCC(=O)NNC(=S)NC(=O)Cc1ccccc1` [Compound 8, 1-(2-Cyanoacetyl)-4-phenylacetylthiosemicarbazide], for which the IC50 (as a rule, the concentration that gives 50% inhibition) in data set [1] came to 189.5 ± 1.06 µM; on E. coli Topoisomerase IV it was 19.7 ± 1 µM; against E. coli DNA gyrase B, 0.33 µM; in data set [14], 22.4 ± 0.36 µM; in data set [15], 144.7 ± 0.36 µM. The MIC – broadly, the lowest concentration that inhibits growth of the organism – in data set [2] was 2.11 ± 0.51 µg/mL (≈ 7.64 µM); in data set [3], 0.95 ± 0.22 µg/mL (≈ 3.44 µM); in [4], 1.25 ± 0.5 µg/mL (≈ 4.52 µM); in data set [5], 39.8 ± 0.2 µg/mL (≈ 144 µM); in data set [6], 3.25 ± 1 µg/mL (≈ 11.8 µM); in [7] it was 1.38 ± 0.25 µg/mL (≈ 4.99 µM). Besides, the zone of inhibition (commonly the extent of the growth-free halo in a diffusion test) in [8] amounted to 27 ± 0.21 mm; in data set [9], 27 ± 0.62 mm; in data set [10], 36 ± 0.12 mm; in [11], 18 ± 0.05 mm; in data set [12], 39 ± 1.21 mm; in data set [13] it was 42 ± 0.3 mm.
With `Cc1occc1C(=O)NNC(=S)NC(=O)c1ccccc1` [I], in [16], the concentration for half-maximal inhibition (IC50) is 14.6 µM.
Take `COc1ccc(NC(=S)Nc2nc(-c3nnc(S)n3-c3ccc(OC)cc3OC)cs2)c(OC)c1` [V]: in data set [17], the “fold more active than the positive control methotrexate as DHFR inhibitor” value was 2.7 fold.
